Measurements reported in patent publication EP0994713B1, “USE OF A 7alpha-METHYL-17alpha-ETHYNYL-ESTRANE DERIVATIVE FOR THE TREATMENT OF ATHEROSCLEROSIS” (Akzo Nobel N.V., priority 1997, dated 1998).

Columns and labels:
Format in all cases: in vivo, New Zealand White rabbits
[1] = tested on: female ovariectomized rabbits; experiment: Vessel wall cholesterol measurement in the aortic arch; conditions: for Cholesterol level in aortic arch: cholesterol diet, OVX, necropsy at 20 weeks
Protocol: (§1) The model is considered relevant to the human atherosclerotic process, because the cellular events occurring during the development of the atherosclerotic lesions during the atherogenic diet are similar to those observed in different stages of atherosclerotic processes in coronary arteries.
(§2) An experiment was performed with 7 groups of sexually mature, virgin female New Zealand White rabbits (Harlan, Zeist, The Netherlands), age 7-9 months and weighing approximately 3 kg (number of […] per group: 13-14). During the acclimatization period the rabbits were fed a diet of standard commercial rabbit chow LKK20 (Hope Farms, Woerden, The Netherlands). Three weeks prior to the start of the experiment the animals were anaesthetized and underwent bilateral ovariectomy (OVX) or were sham operated. After three weeks, at the start of the experiment, the rabbits were randomized over the treatment groups.
(§3) The animals were randomly allocated into 7 experimental groups using a randomized block design. […] One group was fed the standard rabbit chow (LKK20). Food intake was restricted to 80 grams daily.
(§4) Groups 1, 2 and 3 were on a daily placebo treatment. Groups 4-5 were treated with 7α-methyl-17α-ethynyl-17β-hydroxy-estra-5(10)-en-3-one (OD-14; tibolone; 6 or 2 mg daily); group 6 with 17β-estradiol (4 mg daily). Group 7 was on treatment with 17β-estradiol decanoate (150 µg in 1 ml arachis oil injected subcutaneously once a week).
(§5) During the experiment blood samples were drawn out of the central ear artery after sedation with Hypnorm (0.1 ml i.m.) (Janssen Pharmaceutics, Beerse, Belgium) before the daily treatment, at week 4,8,12,16 and 20, to monitor the plasma cholesterol levels and to measure, at week 17, plasma estradiol levels and plasma tibolone levels. Twenty weeks after the start of the experiment animals were anaesthetized by an i.m. injection of Hypnorm (0.5 ml/kg). After blood sampling the rabbits were killed by exsanguination and the aortic arch, uterus and carotid artery removed for further analyses.
(§6) Three weeks prior to the start of the experiment the animals were ovariectomized. At the start of the experiment the carotid artery was de-endothelialised using the air-drying technique. The normal rabbit chow was replaced by the atherogenic diet except for the control group which received during the experiment the normal rabbit chow.
(§7) Group 5 was on treatment with 17β-estradiol decanoate (300 µg in 1 ml arachis oil injected subcutaneously once a week).
The amount of protein in the tissue was determined by the method of Lowry.

[2] = tested on: female ovariectomized rabbits; experiment: Uterus weight (estrogenic activity), cholesterol fed rabbit model; conditions: for Uterus weight per 100 grams body weight: cholesterol diet, OVX, necropsy at 20 weeks
Protocol: as §1
as §2, with “groups. In all animals de-endothelialisation of a segment of the left carotid artery was applied by using the air-drying technique (Fishman, J.A. et al., "Endothelial regeneration in the rat carotid artery and the significance of endothelial denudation in the pathogenesis of myointimal thickening", Lab. Invest. 1975, 32, 339-351; and Lafont, A. et al., "Restenosis and experimental angioplasty: Intimal, medial and adventitial changes associated with constructive remodeling", Circulation Research, 1995, 76, 996-1002)” for “groups.”
(§8) The animals were randomly allocated into 7 experimental groups using a randomized block design. The groups were fed an atherogenic diet (commercial rabbit chow (LKK20) enriched with 0.4 grams cholesterol, 3.75 grams coconut oil and 3.75 grams peanut oil per 100 grams). One group was fed the standard rabbit chow (LKK20). Food intake was restricted to 80 grams daily.
(§9) The treatments (Table I) were daily administered orally as a tablet, prepared as in Example 1. Groups 1, 2 and 3 were on a daily placebo treatment. Groups 4-5 were treated with 7α-methyl-17α-ethynyl-17β-hydroxy-estra-5(10)-en-3-one (OD-14; tibolone; 6 or 2 mg daily); group 6 with 17β-estradiol (4 mg daily). Group 7 was on treatment with 17β-estradiol decanoate (150 µg in 1 ml arachis oil injected subcutaneously once a week).
as §5
(§10) In addition to example 2 an additional experiment was performed with two lower doses of Org OD14 and a higher dose of estradiol decanoate. […] The procedures were identical to those in example 2.
as §6
(§11) The treatments (table II) of group 1, 2, 3 and 4 were daily administered orally as a tablet, prepared as in example 1. The doses of Org OD14 per tablet, however, were 0.6 mg and 0.15 mg respectively. Group 5 was on treatment with 17β-estradiol decanoate (300 µg in 1 ml arachis oil injected subcutaneously once a week). Twenty weeks after the start of the experiment was ended in the same manner as described in example 2.
(§12) After 20 weeks of diet and of daily treatment, necropsy was performed to determine the accumulation of cholesterol and fatty streaks in the aortic arch and the advanced lesions in the carotid artery. […]

[3] = tested on: female ovariectomized rabbits; experiment: Intimal thickening (advanced lesions) in carotid artery after de-endothelialisation; conditions: for Advanced lesions in carotid artery: intimal surface: cholesterol diet, OVX, necropsy at 20 weeks; for advanced lesion formation following mechanical de-endothelisation (in words): Example 2: Org OD14 2 and 6 mg, E2 4 mg orally daily, E2D 150 µg s.c. weekly
Protocol: as §1
as §2, with “groups. In all animals de-endothelialisation of a segment of the left carotid artery was applied by using the air-drying technique (Fishman, J.A. et al., "Endothelial regeneration in the rat carotid artery and the significance of endothelial denudation in the pathogenesis of myointimal thickening", Lab. Invest. 1975, 32, 339-351; and Lafont, A. et al., "Restenosis and experimental angioplasty: Intimal, medial and adventitial changes associated with constructive remodeling", Circulation Research, 1995, 76, 996-1002)” for “groups.”
as §8, §9
During the experiment blood samples were drawn out of the central ear artery after sedation with Hypnorm (0.1 ml i.m.) (Janssen Pharmaceutics, Beerse, Belgium) before the daily treatment, at week 4,8,12,16 and 20, to monitor the plasma cholesterol levels and to measure, at week 17, plasma estradiol levels and plasma tibolone levels. Twenty weeks after the start of the experiment animals were anaesthetized by an i.m. injection of Hypnorm (0.5 ml/kg). After blood sampling the rabbits were killed by exsanguination and the aortic arch, uterus and carotid artery removed for further analyses. […]
The left (airdried) carotid artery was dissected and fixed in 2% paraformaldehyde containing 6.8% glucose. The right carotid artery was used as comparison. After fixation the tissue was divided in blocks with a length of 2 mm and embedded in paraffin (Paraplast plus®, Sherwood Medical Co, St. Louis, USA) using an automated tissue processor (Hypercenter XP, Shandon).
To measure intimal thickening (using image analysis) a specific staining method and a belonging image analysis application have been developed.
Measurements were performed on 2 µm transverse sections which were treated with elastase (Serva Feinbiochemica Gmbh, Heidelberg, Germany) prior to elastin staining with Lawson solution (Boom, Meppel, the Netherlands) and light green (Sigma). Subsequently sections were airdried and mounted in Pertex (Leica Gmbh, Nussloch, Germany).
For morphological study both methylene blue/Azur II and hemotoxylin/eosin stained (2 µm) transverse sections were used. Smooth muscle cells and macrophages were detected with respectively α-actin antibodies (Sigma) and anti-macrophage antibodies (RAM11, DAKO, Glostrup, Denmark). […]

[4] = tested on: female ovariectomized rabbits; experiment: Overall atherosclerotic lesion formation, cholesterol fed rabbit model; conditions: Example 3: Org OD14 0.6 mg orally daily; estradiol decanoate 300 µg s.c. weekly
Protocol: as §1, §10, §6, §11
In example 3 we tested Org OD14 at two lower doses (0.6 and 0.15 mg orally once daily) and estradiol decanoate at a higher dose (300 µg s.c. once weekly). […]

[5] = tested on: female ovariectomized rabbits; experiment: Fatty streaks in the aortic arch (Sudan Red, image analysis); conditions: cholesterol diet, OVX, necropsy at 20 weeks
Protocol: as §1
as §2, with “groups. In all animals de-endothelialisation of a segment of the left carotid artery was applied by using the air-drying technique (Fishman, J.A. et al., "Endothelial regeneration in the rat carotid artery and the significance of endothelial denudation in the pathogenesis of myointimal thickening", Lab. Invest. 1975, 32, 339-351; and Lafont, A. et al., "Restenosis and experimental angioplasty: Intimal, medial and adventitial changes associated with constructive remodeling", Circulation Research, 1995, 76, 996-1002)” for “groups.”
as §8, §9, §5, §10, §6, §11
The aortic arch was dissected free, opened longitudinally and fixed in 2% paraformaldehyde. The tissue was then stained for lipids using 0.3% (w/v) Sudan Red. Colour photographs were taken of all segments. […]

[6] = Body weight at necropsy, cholesterol fed rabbit model; conditions: cholesterol diet, OVX, necropsy at 20 weeks
Protocol: as §1
as §2, with “groups. In all animals de-endothelialisation of a segment of the left carotid artery was applied by using the air-drying technique (Fishman, J.A. et al., "Endothelial regeneration in the rat carotid artery and the significance of endothelial denudation in the pathogenesis of myointimal thickening", Lab. Invest. 1975, 32, 339-351; and Lafont, A. et al., "Restenosis and experimental angioplasty: Intimal, medial and adventitial changes associated with constructive remodeling", Circulation Research, 1995, 76, 996-1002)” for “groups.”
as §8, §9, §5, §10, §6, §11, §12

[7] = tested on: female ovariectomized rabbits; experiment: Plasma cholesterol levels, cholesterol fed rabbit model; conditions: for Mean plasma cholesterol exposure: cholesterol diet, OVX, 20 weeks; for plasma cholesterol levels (in words): Example 2: Org OD14 2 and 6 mg, E2 4 mg orally daily, E2D 150 µg s.c. weekly
Protocol: as §1, §2, §3, §4, §5, §6, §7

[8] = Example 2, Group 7: 150 µg subcutaneously once a week
[9] = Example 3: 300 µg subcutaneously once weekly
[10] = Example 2, Group 6: 4 mg orally daily

CCCCCCCCCC(=O)O[C@H]1CC[C@H]2[C@@H]3CCc4cc(O)ccc4[C@H]3CC[C@]12C [Estradiol decanoate, 17β-estradiol decanoate, reference compound]
Cholesterol level in aortic arch [1, 8]: 318 ± 58 nmol/mg protein
reduction of cholesterol accumulation in the aortic arch ([1]; Example 2: 150 µg s.c. once a week, versus placebo): 46%
Cholesterol level in aortic arch [1, 9]: 225 ± 69 nmol/mg protein
Uterus weight per 100 grams body weight [2, 8]: 0.37 ±0.04 per 100 grams body weight
increase of uterus weight ([2]; Example 3, text: estradiol decanoate 300 µg s.c. once weekly, versus placebo 0.054): 835%
uterus weight ([2]; Example 3, text: estradiol decanoate 300 µg s.c. once weekly, placebo 0.054): 0.505 grams per 100 grams body weigh
Uterus weight per 100 grams body weight [2, 9]: 0.505 ±0.075 per 100 grams body weight
Advanced lesions in carotid artery: intimal surface [3, 8]: 0.23 ± 0.06 * mm^2
Histology of the lesions ([3]; Example 2, carotid artery, placebo on cholesterol diet: smooth muscle cells and foam cells): the lesions still consisted of smooth muscle cells and foam cells
advanced lesion formation following mechanical de-endothelisation (in words) [3]: reduced advanced lesion formation
Advanced lesions in carotid artery: intimal surface [3, 9]: 0.18 ± 0.02 * mm^2
atherosclerotic lesion formation (in words) [4]: still only partially inhibited
Fatty streak in aortic arch [5, 8]: 28.1 ± 4.1 % of arcus covered
Fatty streak in aortic arch [5, 9]: 14.2 ± 3.2 % of arcus covered
Body weight [6, 8]: 2973 ± 52 grams
Body weight [6, 9]: 3093 ± 60 grams
Mean plasma cholesterol exposure [7, 8]: 30.0 ± 3.7 mmol/L/day
plasma cholesterol levels (in words) [7]: did not affect plasma cholesterol levels
Mean plasma cholesterol exposure [7, 9]: 23.0 ± 2.0 mmol/L/day

C[C@]12CC[C@@H]3c4ccc(O)cc4CC[C@H]3[C@@H]1CCC2O (stereo partly drawn) [Estradiol, estra-1,3,5 (10)-triene-3,17-diol, reference compound]
Cholesterol level in aortic arch [1, 10]: 521 ± 99 nmol/mg protein
cholesterol accumulation in the aortic arch (in words) ([1]; Example 2: Org OD14 2 and 6 mg, E2 4 mg orally daily): did not lead to a reduction in cholesterol accumulation
Uterus weight per 100 grams body weight [2, 10]: 0.31 ±0.02 per 100 grams body weight
Advanced lesions in carotid artery: intimal surface [3, 10]: 0.30 ± 0.06 mm^2
advanced lesion formation following mechanical de-endothelisation (in words) [3]: had no effect on advanced lesion formation
Fatty streak in aortic arch [5, 10]: 25.5 ± 5.2 % of arcus covered
Mean plasma cholesterol exposure [7, 10]: 27.7 ± 2.8 mmol/L/day
plasma cholesterol levels (in words) [7]: did not affect plasma cholesterol levels
